According to patent US20220071932A1, “Compositions and Methods Against Stress-Induced Affective Disorders and Their Associated Symptoms” (The Trustees of Columbia University in the City of New York, priority 2019, published 2022):

Tested on: 129S6/SvEv mice
Test: Forced swim test (FST); immobility time
Type: in vivo
Conditions: for p, Immobility Time (s), FST Day 2, (R,S)-ketamine vs. FENM: (R,S)-ketamine 30 mg/kg vs. FENM 20 mg/kg; for p, Immobility Time (s), FST Day 2, Saline vs. drug: (R,S)-ketamine 30 mg/kg
Method: The FST was administered as previously described (47). Briefly, mice were placed into clear plastic buckets 20 cm in diameter and 23 cm deep filled ⅔ of the way with 22° C. water. Mice were videotaped from the side for 6 min and were exposed to the swim test on 2 consecutive days Immobility time was scored by an experimenter blind to the experimental groups.

[1] = (R,S)-ketamine (30 mg/kg) vs. FENM (20 mg/kg), FIG. 8H
[2] = Fisher's LSD, Baseline cohort, FENM 20 mg/kg, FIG. 6D
[3] = Saline vs. FENM (20 mg/kg), FIG. 8H
[4] = dose (20), drug 5 minutes after stress, FIG. 2F
[5] = non-stressed mice, FENM 20 mg/kg 1 hour before the start of the FST, vs saline

NC12CC3CC(C1)CC(CCF)(C3)C2 [FENM, 1-amino-3-fluoroethyl-adamantane]
Forced Swim Test Day 1, Immobility Time Min 5 (sec), p (Fisher's LSD) [1]: 0.3041
Forced Swim Test Day 1, Immobility Time Min 6 (sec), p (Fisher's LSD) [1]: 0.8903
Forced Swim Test Day 2, Immobility Time (sec), p (Fisher's LSD) ((R,S)-ketamine (30 mg/kg) vs. FENM (20 mg/kg), after ANOVA, FIG. 8K): 0.0713
Forced Swim Test Day 2, Immobility Time (sec), p (Fisher's LSD) ((R,S)-ketamine (30 mg/kg) vs. FENM (20 mg/kg), after RMANOVA, FIG. 8J): 0.0712
Behavior: Depressive-like (Antidepressant (5 min after stress), dose 10 mg/kg): ↓
Behavior: Depressive-like (Antidepressant (5 min after stress), dose 20 mg/kg): ↓
Behavior: Depressive-like (Antidepressant (5 min after stress), dose 30 mg/kg): ↓
Behavior: Depressive-like (Antidepressant (5 min after stress; extinction), dose 20 mg/kg): ↓
p, Immobility Time Min 1 (sec), FST Day 2, Saline vs. FENM [2]: 0.3330
p, Immobility Time Min 2 (sec), FST Day 2, Saline vs. FENM [2]: 0.4156
p, Immobility Time Min 3 (sec), FST Day 2, Saline vs. FENM [2]: 0.0346
p, Immobility Time Min 4 (sec), FST Day 2, Saline vs. FENM [2]: 0.2905
p, Immobility Time Min 5 (sec), FST Day 2, Saline vs. FENM [2]: 0.6448
p, Immobility Time Min 6 (sec), FST Day 2, Saline vs. FENM [2]: 0.5256
p, Immobility Time (s), FST Day 2, (R,S)-ketamine vs. FENM (Fisher's PLSD after ANOVA, drug 5 minutes after stress, FIG. 3K): 0.0014
p, Immobility Time (s), FST Day 2, Saline vs. drug (Fisher's PLSD after ANOVA, drug 5 minutes after stress, FENM 20 mg/kg, FIG. 3K): 0.0097
p, Immobility Time (s), FST Day 2, (R,S)-ketamine vs. FENM (Fisher's PLSD after RMANOVA, drug 5 minutes after stress, FIG. 3J): 0.0069
p, Immobility Time (s), FST Day 2, Saline vs. drug (Fisher's PLSD after RMANOVA, drug 5 minutes after stress, FENM 20 mg/kg, FIG. 3J): 0.0234
Behavior: Depressive-like (Prophylactic (7 days before stress), dose 10 mg/kg): ↓
Behavior: Depressive-like (Prophylactic (7 days before stress), dose 20 mg/kg): ↓
Behavior: Depressive-like (Prophylactic (7 days before stress), dose 30 mg/kg): ↓
Forced Swim Test Day 1, Immobility Time Min 1 (sec), p (Fisher's LSD) [3]: <0.0001
Forced Swim Test Day 1, Immobility Time Min 2 (sec), p (Fisher's LSD) [3]: 0.0752
Forced Swim Test Day 1, Immobility Time Min 3 (sec), p (Fisher's LSD) [3]: 0.0422
Forced Swim Test Day 1, Immobility Time Min 4 (sec), p (Fisher's LSD) [3]: 0.4348
Forced Swim Test Day 1, Immobility Time Min 5 (sec), p (Fisher's LSD) [3]: 0.8223
Forced Swim Test Day 1, Immobility Time Min 6 (sec), p (Fisher's LSD) [3]: 0.0677
Forced Swim Test Day 2, Immobility Time (sec), p (Fisher's LSD) (Saline vs. FENM (20 mg/kg), after ANOVA, FIG. 8K): 0.3636
Forced Swim Test Day 2, Immobility Time (sec), p (Fisher's LSD) (Saline vs. FENM (20 mg/kg), after RMANOVA, FIG. 8J): 0.3085
p, Fisher's PLSD Saline vs. drug, FST Day 2 Immobility Time Min 1 (s) [4]: 0.0237
p, Fisher's PLSD Saline vs. drug, FST Day 2 Immobility Time Min 2 (s) [4]: 0.0034
p, Fisher's PLSD Saline vs. drug, FST Day 2 Immobility Time Min 3 (s) [4]: 0.0763
p, Fisher's PLSD Saline vs. drug, FST Day 2 Immobility Time Min 4 (s) [4]: 0.1586
p, Fisher's PLSD Saline vs. drug, FST Day 2 Immobility Time Min 5 (s) [4]: 0.0575
p, Fisher's PLSD Saline vs. drug, FST Day 2 Immobility Time Min 6 (s) [4]: 0.2137
p, Fisher's PLSD Saline vs. drug, FST Day 2 Immobility Time (s) (dose (20), drug 5 minutes after stress, after ANOVA, FIG. 2G): 0.0024
immobility, day 1 of the FST [5]: comparable
immobility, day 2 of the FST [5]: comparable
p, Immobility Time (sec), FST Day 1, Saline vs. FENM (t-test, Baseline cohort, FENM 20 mg/kg, FIG. 6C): 0.7086
p, Immobility Time (sec), FST Day 2, Saline vs. FENM (t-test, Baseline cohort, FENM 20 mg/kg, FIG. 6E): 0.7847
